From patent US11235976B2, “Nanocarbon-iron composite system as well as composition, preparation method and use thereof” (Chongqing Lummy Pharmaceutical Co., LTD, priority 2017, dated 2022)

What follows are substances tested on SKOV3 ovarian cancer cells (assay: Cell experiment, cell survival rate). Conditions: iron preparation alone 0.43 μg/mL, 48 h.
Format: cell-based
Protocol: (§1) Cells growing in a log phase are collected, the concentration of the cell suspension is adjusted, 100 μL of cell suspension is added to each well and the cells are plated (edge wells are filled with sterile PBS) at a density of 1×10^3-10^4 cells/well. The cells are incubated for 24 hours at 37° C. under the condition of 5% CO2, a nanocarbon-iron solution having a concentration gradient (nanocarbon content: 125, 62.5, 15.63 and 3.91 μg/mL; and ferric ion content: 13.65, 6.83, 1.71 and 0.43 μg/mL) is added, and three sub-wells are set. Then the cells are incubated for 48 hours at 37° C. under the condition of 5% CO2. 10 μL of CCK8 solution is added to each well and then the cells are continuously incubated for 2 hours. The absorbance of each well is measured at OD=450 nm with the microplate reader. In addition, a negative control group, nanocarbon control groups having the same concentration and iron preparation control groups having the same concentration are set.
as §1, with “and 1” for “100”, “of a 6-well plate” for “and the cells are plated (edge wells are filled with sterile PBS)”, “3×10^4” for “1×10^3-10^4”, “1.71,” for “1.71 and”, “The” for “10 μL of CCK8 solution is added to each well and then the”, “trypsinized and counted.” for “continuously incubated for 2 hours. The absorbance of each well is measured at OD=450 nm with the microplate reader.”

Substance	Cell Survival Rate [%]
ammonium ferric citrate	95.67

Same assay, conditions: iron preparation alone 1.71 μg/mL, 48 h

Substance	Cell Survival Rate [%]
ammonium ferric citrate	99.46

Same assay, conditions: iron preparation alone 6.83 μg/mL, 48 h

Substance	Cell Survival Rate [%]
ammonium ferric citrate	94.36

Same assay, conditions: iron preparation alone 13.65 μg/mL, 48 h

Substance	Cell Survival Rate [%]
ammonium ferric citrate	100

These substances were tested on Hela cervical cancer cells (assay: Cell experiment, cell survival rate). Conditions: iron preparation alone 0.43 μg/mL, 48 h.
Format: cell-based
Protocol: as §1
as §1, with “and 1” for “100”, “of a 6-well plate” for “and the cells are plated (edge wells are filled with sterile PBS)”, “3×10^4” for “1×10^3-10^4”, “1.71,” for “1.71 and”, “The” for “10 μL of CCK8 solution is added to each well and then the”, “trypsinized and counted.” for “continuously incubated for 2 hours. The absorbance of each well is measured at OD=450 nm with the microplate reader.”

Substance	Cell Survival Rate [%]
ammonium ferric citrate	100

Same assay, conditions: iron preparation alone 1.71 μg/mL, 48 h

Substance	Cell Survival Rate [%]
ammonium ferric citrate	99.34

Same assay, conditions: iron preparation alone 6.83 μg/mL, 48 h

Substance	Cell Survival Rate [%]
ammonium ferric citrate	97.46

Same assay, conditions: iron preparation alone 13.65 μg/mL, 48 h

Substance	Cell Survival Rate [%]
ammonium ferric citrate	93.67

These substances were tested on SMMC7721 liver cancer cells (assay: Cell experiment, cell survival rate). Conditions: SMMC-7721; iron preparation alone 0.43 μg/mL; 48 h.
Format: cell-based
Protocol: as §1
as §1, with “and 1” for “100”, “of a 6-well plate” for “and the cells are plated (edge wells are filled with sterile PBS)”, “3×10^4” for “1×10^3-10^4”, “1.71,” for “1.71 and”, “The” for “10 μL of CCK8 solution is added to each well and then the”, “trypsinized and counted.” for “continuously incubated for 2 hours. The absorbance of each well is measured at OD=450 nm with the microplate reader.”

Substance	Cell Survival Rate [%]
ammonium ferric citrate	100

Same assay, conditions: SMMC-7721; iron preparation alone 1.71 μg/mL; 48 h

Substance	Cell Survival Rate [%]
ammonium ferric citrate	98.43

Same assay, conditions: SMMC-7721; iron preparation alone 6.83 μg/mL; 48 h

Substance	Cell Survival Rate [%]
ammonium ferric citrate	94.19

Same assay, conditions: SMMC-7721; iron preparation alone 13.65 μg/mL; 48 h

Substance	Cell Survival Rate [%]
ammonium ferric citrate	100

These substances were tested on SGC-7901 stomach cancer cells (assay: Cell experiment, cell survival rate). Conditions: iron preparation alone 0.43 μg/mL, 48 h.
Format: cell-based
Protocol: as §1
as §1, with “and 1” for “100”, “of a 6-well plate” for “and the cells are plated (edge wells are filled with sterile PBS)”, “3×10^4” for “1×10^3-10^4”, “1.71,” for “1.71 and”, “The” for “10 μL of CCK8 solution is added to each well and then the”, “trypsinized and counted.” for “continuously incubated for 2 hours. The absorbance of each well is measured at OD=450 nm with the microplate reader.”

Substance	Cell Survival Rate [%]
ammonium ferric citrate	97.85

Same assay, conditions: iron preparation alone 1.71 μg/mL, 48 h

Substance	Cell Survival Rate [%]
ammonium ferric citrate	95.31

Same assay, conditions: iron preparation alone 6.83 μg/mL, 48 h

Substance	Cell Survival Rate [%]
ammonium ferric citrate	96.41

Same assay, conditions: iron preparation alone 13.65 μg/mL, 48 h

Substance	Cell Survival Rate [%]
ammonium ferric citrate	100

What follows are substances tested on MDA-MB-231 breast cancer cells (assay: Cell experiment, cell survival rate). Conditions: iron preparation alone 0.43 μg/mL, 48 h.
Format: cell-based
Protocol: as §1
as §1, with “and 1” for “100”, “of a 6-well plate” for “and the cells are plated (edge wells are filled with sterile PBS)”, “3×10^4” for “1×10^3-10^4”, “1.71,” for “1.71 and”, “The” for “10 μL of CCK8 solution is added to each well and then the”, “trypsinized and counted.” for “continuously incubated for 2 hours. The absorbance of each well is measured at OD=450 nm with the microplate reader.”

Substance	Cell Survival Rate [%]
ammonium ferric citrate	100

Same assay, conditions: iron preparation alone 1.71 μg/mL, 48 h

Substance	Cell Survival Rate [%]
ammonium ferric citrate	100

Same assay, conditions: iron preparation alone 6.83 μg/mL, 48 h

Substance	Cell Survival Rate [%]
ammonium ferric citrate	97.28

Same assay, conditions: iron preparation alone 13.65 μg/mL, 48 h

Substance	Cell Survival Rate [%]
ammonium ferric citrate	95.12

Each substance was assayed on HCT116 colon cancer cells (assay: Cell experiment, cell survival rate). Conditions: iron preparation alone 0.43 μg/mL, 48 h.
Format: cell-based
Protocol: as §1
as §1, with “and 1” for “100”, “of a 6-well plate” for “and the cells are plated (edge wells are filled with sterile PBS)”, “3×10^4” for “1×10^3-10^4”, “1.71,” for “1.71 and”, “The” for “10 μL of CCK8 solution is added to each well and then the”, “trypsinized and counted.” for “continuously incubated for 2 hours. The absorbance of each well is measured at OD=450 nm with the microplate reader.”

Substance	Cell Survival Rate [%]
ammonium ferric citrate	97.31

Same assay, conditions: iron preparation alone 1.71 μg/mL, 48 h

Substance	Cell Survival Rate [%]
ammonium ferric citrate	98.12

Same assay, conditions: iron preparation alone 6.83 μg/mL, 48 h

Substance	Cell Survival Rate [%]
ammonium ferric citrate	94.03
